Literature values, collected in US6479068B1, “Therapeutic nutrient regimen for alleviating mucositis, stomatitis and cachexia in oncology patients” (Baxter International Inc., priority 2000, dated 2002).

Conditions: in vivo

[Se] [Selenium, selenium]
absorption: 50-100%
